The melting point is the temperature, or range, at which the solid turns liquid. Compound `Cl.Nc1ccc(N2CCN(CCCCC3(C(=O)NCC(F)(F)F)c4ccccc4-c4ccccc43)CC2)cc1` came in with a melting point greater than 270 °C.

`O=C(NCC(F)(F)F)C1(CCCCN2CCN(c3ccc(-c4ccccc4)cc3)CC2)c2ccccc2-c2ccccc21` [Example 3, 9-[4-(4-biphenyl-4-yl-piperazin-1-yl)-butyl]-9H-fluorene-9-carboxylic acid-(2,2,2-trifluoroethyl)-amide] had a melting point of 209 to 211 °C.

`O=C(NCC(F)(F)F)C1(CCCCN2CCN(c3ccc(Cl)cc3)CC2)c2ccccc2-c2ccccc21` [Example 4, 9-{4-[4-(4-Chloro-phenyl)-piperazin-1-yl]-butyl}-9H-fluorene-9-carboxylic acid-(2,2,2-trifluoroethyl)-amide] showed a melting point of 166 °C.

Regarding `O=C(NCC(F)(F)F)C1(CCCCN2CCN(c3cccc(Cl)c3)CC2)c2ccccc2-c2ccccc21` [Example 5, 9-{4-[4-(3-Chloro-phenyl)-piperazin-1-yl]-butyl}-9H-fluorene-9-carboxylic acid-(2,2,2-trifluoroethyl)-amide], the melting point is 122 °C.

With `O=C(NCC(F)(F)F)C1(CCCCN2CCN(c3ccc(OCc4ccccc4)cc3)CC2)c2ccccc2-c2ccccc21` [Example 6, 9-{4-[4-(4-Benzyloxy-phenyl)-piperazin-1-yl]-butyl}-9H-fluorene-9-carboxylic acid-(2,2,2-trifluoroethyl)-amide], the melting point was found to be 180 °C.

For the compound `O=C(NCC(F)(F)F)C1(CCCCN2CCN(c3ccc(C(F)(F)F)cc3)CC2)c2ccccc2-c2ccccc21` [Example 7, 9-{4-[4-(4-Trifluoromethyl-phenyl)-piperazin-1-yl]-butyl}-9H-fluorene-9-carboxylic acid-(2,2,2-trifluoroethyl)-amide], the melting point was 176 °C.

Turning to `O=C(NCC(F)(F)F)C1(CCCCN2CCN(c3ccc(F)cc3)CC2)c2ccccc2-c2ccccc21` [Example 9, 9-{4-[4-(4-Fluorophenyl)-piperazin-1-yl]-butyl}-9H-fluorene-9-carboxylic acid-(2,2,2-trifluoroethyl)-amide], the melting point was 116 to 117 °C.

In turn, `O=C(NCC(F)(F)F)C1(CCCCN2CCN(c3ccc(Cl)c(C(F)(F)F)c3)CC2)c2ccccc2-c2ccccc21` [Example 10, 9-{4-[4-(4-Chloro-3-trifluoromethyl-phenyl)-piperazin-1-yl]-butyl}-9H-fluorene-9-carboxylic acid-(2,2,2-trifluoroethyl)-amide] had a melting point of 96 °C.

`O=C(NCC(F)(F)F)C1(CCCCN2CCN(c3ccc(Cl)c(Cl)c3)CC2)c2ccccc2-c2ccccc21` [Example 12, 9-{4-[4-(3,4-dichlorophenyl)-piperazin-1-yl]-butyl}-9H-fluorene-9-carboxylic acid-(2,2,2-trifluoroethyl)-amide] gave a melting point of 122 °C.

For `COc1ccc(N2CCN(CCCCC3(C(=O)NCC(F)(F)F)c4ccccc4-c4ccccc43)CC2)cc1` [Example 13, 9-{4-[4-(4-methoxy-phenyl)-piperazin-1-yl]-butyl}-9H-fluorene-9-carboxylic acid-(2,2,2-trifluoroethyl)-amide], the melting point came out at 120 °C.

Consider `O=C(NCC(F)(F)F)C1(CCCCN2CCN(c3ccc([N+](=O)[O-])cc3)CC2)c2ccccc2-c2ccccc21` [Example 17, 9-{4-[4-(4-nitro-phenyl)-piperazin-1-yl]-butyl}-9H-fluorene-9-carboxylic acid-(2,2,2-trifluoroethyl)-amide], for which the melting point stood at 146 °C.

`O=C(NCC(F)(F)F)C1(CCCCN2CCN(c3ccccn3)CC2)c2ccccc2-c2ccccc21` [Example 20, 9-{4-[4-Pyridin-2-yl-piperazin-1-yl]-butyl}-9H-fluorene-9-carboxylic acid-(2,2,2-trifluoroethyl)-amide] showed a melting point of 123 °C.

For the compound `Cc1cccc(N2CCN(CCCCC3(C(=O)NCC(F)(F)F)c4ccccc4-c4ccccc43)CC2)n1` [Example 25, 9-{4-[4-(6-methyl-pyridin-2-yl)-piperazin-1-yl]-butyl}-9H-fluorene-9-carboxylic acid-(2,2,2-trifluoroethyl)-amide], the melting point was in the range of 85 to 87 °C.

`Cc1cccc(N2CCN(CCCCC3(C(=O)NCc4ccc(F)cc4)c4ccccc4-c4ccccc43)CC2)n1` [Example 26, 9-{4-[4-(6-methyl-pyridin-2-yl)-piperazin-1-yl]-butyl}-9H-fluorene-9-carboxylic acid-4-fluorobenzyl-amide] came in with a melting point of 96 to 97 °C.

Compound `O=C(NCC(F)(F)F)C1(CCCCN2CCN(c3ccc(C(F)(F)F)cn3)CC2)c2ccccc2-c2ccccc21` [Example 27, 9-{4-[4-(5-trifluoromethyl-pyridin-2-yl)-piperazin-1-yl]-butyl}-9H-fluorene-9-carboxylic acid-(2,2,2-trifluoroethyl)-amide] gave a melting point of 147 to 149 °C.

In the case of `O=C(NCC(F)(F)F)C1(CCCCN2CCN(c3cccc(-c4ccccc4)n3)CC2)c2ccccc2-c2ccccc21` [Example 28, 9-{4-[4-(6-phenyl-pyridin-2-yl)-piperazin-1-yl]-butyl}-9H-fluorene-9-carboxylic acid-(2,2,2-trifluoroethyl)-amide], the melting point stood at 63 °C.

`O=C(NCC(F)(F)F)C1(CCCCN2CCN(c3cc(-c4ccccc4)ccn3)CC2)c2ccccc2-c2ccccc21` [Example 29, 9-{4-[4-(4-phenyl-pyridin-2-yl)-piperazin-1-yl]-butyl}-9H-fluorene-9-carboxylic acid-(2,2,2-trifluoroethyl)-amide]: the melting point amounted to 59 °C.

Turning to `COc1cccc(N2CCN(CCCCC3(C(=O)NCC(F)(F)F)c4ccccc4Oc4ccccc43)CC2)n1` [Example 35, 9-{4-[4-(6-methoxy-pyridin-2-yl)-piperazin-1-yl]-butyl}-9H-xanthene-9-carboxylic acid-(2,2,2-trifluoroethyl)-amide], the melting point stood at 122 °C.

With `COc1cccc(N2CC(C)N(CCCCC3(C(=O)NCC(F)(F)F)c4ccccc4-c4ccccc43)C(C)C2)n1` (centres unmarked) [Example 36, 9-{4-[4-(6-methoxy-pyridin-2-yl)-2,6-dimethyl-piperazin-1-yl]-butyl}-9H-fluorene-9-carboxylic acid-(2,2,2-trifluoroethyl)-amide], the melting point was determined as 122 °C.

Compound `COc1cccc(N2CC(C)N(CCCCC3(C(=O)NCc4ccc(F)cc4)c4ccccc4-c4ccccc43)C(C)C2)n1` (centres unmarked) [Example 37, 9-{4-[4-(6-methoxy-pyridin-2-yl)-2,6-dimethyl-piperazin-1-yl]-butyl}-9H-fluorene-9-carboxylic acid-4-fluorobenzyl-amide] registered a melting point of 78 to 79 °C.

The values above are taken from patent US6818644B1, “Substituted piperazine derivatives, the preparation thereof and their use as medicaments” (Boehringer Ingelheim Pharm GmbH & Co, KG, priority 1999, dated 2004).
